In ChEMBL document CHEMBL2163196, “Discovery of small molecules that inhibit melanogenesis via regulation of tyrosinase expression” (Bioorg Med Chem Lett, 2012):
The source made the active and inactive calls. No cut-off for these calls is given here.

What was measured:
[1] = Inhibition of tyrosinase
B16-F10 [2] = assay: Inhibition of alpha-MSH-induced melanogenesis in mouse B16F10 cells at 1 uM after 3 days by spectrophotometric analysis relative to control; assay type: functional; settings: B16-F10, 72 h
B16-F10 [3] = assay: Inhibition of alpha-MSH-induced melanogenesis in mouse B16F10 cells at 10 uM after 3 days by spectrophotometric analysis relative to control; assay type: functional; settings: B16-F10, 72 h
B16-F10 [4] = assay: Cytotoxicity against mouse alpha-MSH-induced B16F10 cells at 0.31 to 20 uM after 3 days by trypan blue staining; assay type: cell-based; settings: b16-f10, 72 h
B16-F10 [5] = assay: Downregulation of tyrosinase in mouse B16F10 cells assessed as tyrosinase protein expression level at 5 uM after 24 hrs by Western blot analysis relative to actin (reference value: 1.6); assay type: functional
B16-F10 [6] = assay: Downregulation of tyrosinase in mouse B16F10 cells assessed as tyrosinase protein expression level at 5 uM after 48 hrs by Western blot analysis relative to actin (reference value: 1.1); assay type: functional
B16-F10 [7] = assay: Ratio of kojic acid IC50 to compound IC50 for melanogenesis in mouse B16F10 cells; assay type: functional
B16-F10 [8] = assay: Inhibition of alpha-MSH-induced melanogenesis in mouse B16F10 cells after 3 days by spectrophotometric analysis; assay type: functional, cell-based; settings: for IC50: B16-F10, 72 h

Row | inhibition [1] | IC50 (B16-F10 [8]) | Compound | inhibition at 1 µM (B16-F10 [2]) | inhibition at 10 µM (B16-F10 [3]) | Activity (B16-F10 [4]) | fold change (FC) (B16-F10 [5]) | fold change (FC) (B16-F10 [6]) | Ratio IC50 (B16-F10 [7]) | inhibition (B16-F10 [8])
1 | inactive | – | COc1ccc(CN2CCN(C(=O)c3noc4c3CCCCC4)CC2)cc1 | < 5% | < 5% | – | – | – | – | –
2 | inactive | 990 nM | CCOc1ccc(N2CCN(C(=O)c3noc4c3CCCCC4)CC2)cc1 | 47% | 90% | Non-toxic | 0.9 | 0.7 | 85 | Dose-dependent effect
3 | inactive | 670 nM | COc1ccc(N2CCN(C(=O)c3noc4c3CCCCC4)CC2)cc1 | 42% | 92% | Non-toxic | – | – | 126 | Dose-dependent effect
4 | inactive | – | O=C(c1noc2c1CCCCC2)N1CCN(c2ccc(F)cc2)CC1 | – | < 5% | – | – | – | – | –
5 | inactive | – | CCCc1ccc(N2CCN(C(=O)c3noc4c3CCCCC4)CC2)cc1 | 21% | 56% | – | – | – | – | –
6 | inactive | 1010 nM | O=C(c1noc2c1CCCCC2)N1CCN(c2ccc(O)cc2)CC1 | 47% | 89% | Non-toxic | – | – | 85 | Dose-dependent effect
7 | inactive | – | CCCc1ccc(N2CCCN(C(=O)c3noc4c3CCCCC4)CC2)cc1 | 15% | 95% | – | – | – | – | –
8 | inactive | – | COc1ccc(N2CCCN(C(=O)c3noc4c3CCCCC4)CC2)cc1 | – | 30% | – | – | – | – | –
9 | inactive | – | CCCOc1ccc(N2CCN(C(=O)c3noc4c3CCCCC4)CC2)cc1 | 34% | 38% | – | – | – | – | –
10 | inactive | – | COc1cccc(N2CCN(C(=O)c3noc4c3CCCCC4)CC2)c1 | – | < 5% | – | – | – | – | –
11 | inactive | – | O=C(c1noc2c1CCCCC2)N1CCN(c2ccc3c(c2)OCCO3)CC1 | – | < 5% | – | – | – | – | –
12 | inactive | – | O=C(c1noc2c1CCCCC2)N1CCN(c2ccc(Cl)cc2)CC1 | – | 7% | – | – | – | – | –
13 | inactive | – | Cc1ccc(N2CCN(C(=O)c3noc4c3CCCCC4)CC2)cc1 | – | < 5% | – | – | – | – | –
14 | inactive | – | O=C(c1noc2c1CCCCC2)N1CCN(c2ncccn2)CC1 | 11% | 8% | – | – | – | – | –

Row | Compound | inhibition [1] | IC50 (B16-F10 [8]) | inhibition at 1 µM (B16-F10 [2]) | inhibition at 10 µM (B16-F10 [3]) | Activity (B16-F10 [4]) | fold change (FC) (B16-F10 [5]) | fold change (FC) (B16-F10 [6]) | Ratio IC50 (B16-F10 [7]) | inhibition (B16-F10 [8])
15 | O=c1cc(CO)occ1O [KOJIC ACID] | – | 84500 nM | – | – | – | – | – | – | –
